Experimental data: paper PMC7203124, “Structural Basis for PPARα Activation by 1H-pyrazolo-[3,4-b]pyridine Derivatives” (Scientific Reports, 2020)

Biological target: T1, PPARα (Homo sapiens, UniProt Q07869, I272F)
T1 construct: gene PPARA; hPPARα LBD
T1 sequence (Q07869 199-468 I272F limits assumed): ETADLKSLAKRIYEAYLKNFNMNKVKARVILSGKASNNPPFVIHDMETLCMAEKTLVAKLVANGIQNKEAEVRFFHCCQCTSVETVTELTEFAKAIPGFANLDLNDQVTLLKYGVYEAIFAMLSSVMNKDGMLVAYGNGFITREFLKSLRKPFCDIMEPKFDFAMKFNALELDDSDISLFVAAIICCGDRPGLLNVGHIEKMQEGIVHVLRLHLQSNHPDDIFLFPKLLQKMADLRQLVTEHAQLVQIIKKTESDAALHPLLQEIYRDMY
Experiment: transactivation reporter assay at […]
Format: cell-based

CC(C)(Oc1ccc(C(=O)c2ccc(Cl)cc2)cc1)C(=O)O [fenofibric acid]
transactivation reporter assay at 10 μM: while fenofibric acid showed comparable activity between WT and Ile272Phe
